The target of test [1] is T1, ERBB2-A775_G776insYVMA (ERBB2YVMA) (Homo sapiens, UniProt P04626, INS775YVMA).
T1 construct: purchased SignalChem E27-13BG
The test can be described thus: HotSpot radiometric kinase activity assay, ERBB2YVMA. The following applies: biochemical activity, read-out: HER2-YVMA IC50. How it is done:
The purpose of the wtERBB2, ERBB2-A775_G776insYVMA (ERBB2YVMA), wtEGFR biochemical assay was to evaluate the inhibition (% inhibition and IC50 values) of the small molecule inhibitors by using the “HotSpot” radiometric kinase activity assay. HotSpot assays monitor the […] of kinase substrate by the radioactive gamma phosphate of adenosine triphosphate (33P-ATP) during biochemical reactions. HotSpot assays was performed in steps upon completion of the kinase reaction: deposition of a reaction mixture aliquot onto P81 ion exchange paper, extensive washing of the aforementioned P81 paper using phosphoric acid to remove unbound radiolabeled 33P-ATP from the P81 paper, and finally visualization and quantification of the dried P81 paper utilizing a phosphoimager. […] Typical reaction solutions (10 μL final reaction volume) contained the following buffer conditions: 20 mM Hepes (pH 7.5), 10 mM MgCl2, 1 mM EGTA, 0.01% Brij35, 0.02 mg/mL BSA, 0.1 mM Na3VO4, 2 mM DTT, 1% DMSO. The assay was primed by preparing a fresh 0.2 mg/mL solution of pEY (Sigma Cat: P7244) substrate in the reaction buffer and supplementing that solution with […] of MnCl2 as substrate cofactor (Sigma Cat: M9522). The kinase of interest was then added to the solution at the appropriate concentration (30 nM wtERBB2 from, or 20 nM ERBB2YVMA, or 4 nM wtEGFR) and gently mixed prior to delivery of compound in 100% DMSO by acoustic dispensing (Beckman Echo550). Compound, Kinase, and substrate were allowed to incubate for 20 min at room temperature prior to the initiation of the reaction by addition of 33P-ATP (PerkinElmer Cat: NEG602, final conc 10 μM). […] IC50 determinations were made from a plot of kinase activity as a function of inhibitor concentration fit to the 4-parameter IC50 equation with the enzyme concentration held constant using GraphPad Prism (San Diego).

The target of another test is BaF3_HER2WT cells (Homo sapiens, UniProt P04626). In words: Cell growth inhibition assay (CellTiterGlo, 3 days), BaF3_HER2WT. The class given is cell-based. The following applies: read-out: HER2 WT IC50.
The target in another test is BaF3_EGFRWT cells (Homo sapiens, UniProt P00533). The test can be described thus: Cell growth inhibition assay (CellTiterGlo, 3 days), BaF3_EGFRWT. It counts as cell-based. The following applies: read-out: EGFR WT IC50.
The target in another test is BaF3-HER2YVMA cells (Homo sapiens, UniProt P04626, DUP772-775, cells depend on it). In words: Cell growth inhibition assay (CellTiterGlo, 3 days), BaF3-HER2YVMA. The class given is cell-based. The following applies: BaF3_HER2YVMA cells, read-out: HER2-YVMA IC50. In general terms: Cellular ATP, detected with luciferase, serves as a proxy for viable cell number.
Sequence of BaF3-HER2YVMA cells (P04626 with tags, fused parts or gaps DUP772-775): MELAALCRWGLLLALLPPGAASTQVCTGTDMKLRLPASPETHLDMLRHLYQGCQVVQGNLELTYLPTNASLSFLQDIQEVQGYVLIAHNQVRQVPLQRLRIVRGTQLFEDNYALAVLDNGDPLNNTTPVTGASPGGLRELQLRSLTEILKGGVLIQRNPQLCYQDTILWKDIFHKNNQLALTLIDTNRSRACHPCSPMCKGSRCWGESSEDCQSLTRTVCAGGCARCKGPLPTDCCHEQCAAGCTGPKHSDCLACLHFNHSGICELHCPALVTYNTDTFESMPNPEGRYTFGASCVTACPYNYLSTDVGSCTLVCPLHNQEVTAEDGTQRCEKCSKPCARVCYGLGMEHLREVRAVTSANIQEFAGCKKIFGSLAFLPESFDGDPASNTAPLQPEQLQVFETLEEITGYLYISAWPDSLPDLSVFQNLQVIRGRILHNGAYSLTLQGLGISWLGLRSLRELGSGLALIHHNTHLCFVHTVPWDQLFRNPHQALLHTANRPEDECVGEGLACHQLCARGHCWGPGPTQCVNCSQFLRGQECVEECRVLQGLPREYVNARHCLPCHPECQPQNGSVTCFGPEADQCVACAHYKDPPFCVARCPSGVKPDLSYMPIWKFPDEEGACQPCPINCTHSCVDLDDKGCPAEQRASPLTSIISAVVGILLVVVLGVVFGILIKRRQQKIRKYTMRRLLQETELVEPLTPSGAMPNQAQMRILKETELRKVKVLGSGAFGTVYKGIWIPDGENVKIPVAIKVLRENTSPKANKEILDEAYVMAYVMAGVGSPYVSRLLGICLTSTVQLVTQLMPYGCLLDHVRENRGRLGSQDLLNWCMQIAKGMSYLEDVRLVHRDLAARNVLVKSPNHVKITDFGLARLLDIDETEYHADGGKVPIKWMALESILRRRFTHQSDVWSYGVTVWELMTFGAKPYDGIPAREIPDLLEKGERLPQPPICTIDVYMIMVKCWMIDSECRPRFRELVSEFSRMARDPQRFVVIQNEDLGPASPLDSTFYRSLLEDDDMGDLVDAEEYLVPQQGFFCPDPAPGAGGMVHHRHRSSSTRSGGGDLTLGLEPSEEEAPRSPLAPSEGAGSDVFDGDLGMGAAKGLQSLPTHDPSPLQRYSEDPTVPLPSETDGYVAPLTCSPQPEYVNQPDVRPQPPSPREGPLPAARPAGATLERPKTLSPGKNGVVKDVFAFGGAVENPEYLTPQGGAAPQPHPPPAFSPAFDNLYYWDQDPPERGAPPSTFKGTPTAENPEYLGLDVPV

Sequence of BaF3_HER2WT cells (P04626 whole entry, change not shown): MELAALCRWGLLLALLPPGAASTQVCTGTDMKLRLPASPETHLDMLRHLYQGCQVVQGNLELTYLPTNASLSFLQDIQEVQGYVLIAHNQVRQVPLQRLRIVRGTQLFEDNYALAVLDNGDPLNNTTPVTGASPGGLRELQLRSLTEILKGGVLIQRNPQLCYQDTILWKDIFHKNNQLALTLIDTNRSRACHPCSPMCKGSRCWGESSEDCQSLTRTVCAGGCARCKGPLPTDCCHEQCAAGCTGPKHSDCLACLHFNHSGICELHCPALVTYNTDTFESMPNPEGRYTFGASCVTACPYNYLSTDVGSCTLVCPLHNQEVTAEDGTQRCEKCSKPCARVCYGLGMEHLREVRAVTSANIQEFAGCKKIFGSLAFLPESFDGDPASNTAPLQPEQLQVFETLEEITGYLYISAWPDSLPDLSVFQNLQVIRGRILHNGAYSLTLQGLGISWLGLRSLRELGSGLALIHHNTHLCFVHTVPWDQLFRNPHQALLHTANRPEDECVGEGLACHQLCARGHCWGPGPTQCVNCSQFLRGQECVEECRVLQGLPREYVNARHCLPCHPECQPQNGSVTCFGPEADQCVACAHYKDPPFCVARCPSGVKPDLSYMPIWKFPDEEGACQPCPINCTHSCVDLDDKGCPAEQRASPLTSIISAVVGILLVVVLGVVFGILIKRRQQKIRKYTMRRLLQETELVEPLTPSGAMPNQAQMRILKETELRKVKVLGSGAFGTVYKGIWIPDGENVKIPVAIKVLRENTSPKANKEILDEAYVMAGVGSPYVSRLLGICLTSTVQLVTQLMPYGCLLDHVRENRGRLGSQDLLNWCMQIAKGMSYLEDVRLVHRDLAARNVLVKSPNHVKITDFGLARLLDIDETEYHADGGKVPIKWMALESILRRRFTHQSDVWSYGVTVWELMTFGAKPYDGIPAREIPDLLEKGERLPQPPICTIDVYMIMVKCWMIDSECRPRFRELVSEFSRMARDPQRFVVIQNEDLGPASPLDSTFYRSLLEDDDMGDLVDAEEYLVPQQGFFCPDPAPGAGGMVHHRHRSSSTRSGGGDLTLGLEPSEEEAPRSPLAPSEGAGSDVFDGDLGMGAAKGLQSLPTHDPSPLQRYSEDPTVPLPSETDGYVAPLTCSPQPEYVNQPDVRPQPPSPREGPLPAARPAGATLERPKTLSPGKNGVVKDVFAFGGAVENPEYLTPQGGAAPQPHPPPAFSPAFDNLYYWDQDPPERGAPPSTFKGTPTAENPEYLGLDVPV
T1 sequence (P04626 with tags, fused parts or gaps INS775YVMA limits assumed): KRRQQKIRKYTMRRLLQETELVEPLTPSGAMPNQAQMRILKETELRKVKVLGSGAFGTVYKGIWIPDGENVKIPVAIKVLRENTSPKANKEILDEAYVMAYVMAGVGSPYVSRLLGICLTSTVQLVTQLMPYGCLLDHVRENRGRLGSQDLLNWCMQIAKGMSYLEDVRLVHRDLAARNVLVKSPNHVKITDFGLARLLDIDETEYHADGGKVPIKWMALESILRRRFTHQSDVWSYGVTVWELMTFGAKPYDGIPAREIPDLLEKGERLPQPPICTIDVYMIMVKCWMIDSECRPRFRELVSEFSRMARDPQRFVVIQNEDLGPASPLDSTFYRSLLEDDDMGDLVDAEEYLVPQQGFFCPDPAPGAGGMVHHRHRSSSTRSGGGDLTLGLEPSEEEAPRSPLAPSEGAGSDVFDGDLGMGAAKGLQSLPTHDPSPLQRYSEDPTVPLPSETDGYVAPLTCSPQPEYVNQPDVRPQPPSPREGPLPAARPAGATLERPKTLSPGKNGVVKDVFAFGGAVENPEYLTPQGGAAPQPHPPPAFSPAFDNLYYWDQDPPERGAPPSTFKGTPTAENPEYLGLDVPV
Sequence of BaF3_EGFRWT cells (P00533 whole entry, change not shown): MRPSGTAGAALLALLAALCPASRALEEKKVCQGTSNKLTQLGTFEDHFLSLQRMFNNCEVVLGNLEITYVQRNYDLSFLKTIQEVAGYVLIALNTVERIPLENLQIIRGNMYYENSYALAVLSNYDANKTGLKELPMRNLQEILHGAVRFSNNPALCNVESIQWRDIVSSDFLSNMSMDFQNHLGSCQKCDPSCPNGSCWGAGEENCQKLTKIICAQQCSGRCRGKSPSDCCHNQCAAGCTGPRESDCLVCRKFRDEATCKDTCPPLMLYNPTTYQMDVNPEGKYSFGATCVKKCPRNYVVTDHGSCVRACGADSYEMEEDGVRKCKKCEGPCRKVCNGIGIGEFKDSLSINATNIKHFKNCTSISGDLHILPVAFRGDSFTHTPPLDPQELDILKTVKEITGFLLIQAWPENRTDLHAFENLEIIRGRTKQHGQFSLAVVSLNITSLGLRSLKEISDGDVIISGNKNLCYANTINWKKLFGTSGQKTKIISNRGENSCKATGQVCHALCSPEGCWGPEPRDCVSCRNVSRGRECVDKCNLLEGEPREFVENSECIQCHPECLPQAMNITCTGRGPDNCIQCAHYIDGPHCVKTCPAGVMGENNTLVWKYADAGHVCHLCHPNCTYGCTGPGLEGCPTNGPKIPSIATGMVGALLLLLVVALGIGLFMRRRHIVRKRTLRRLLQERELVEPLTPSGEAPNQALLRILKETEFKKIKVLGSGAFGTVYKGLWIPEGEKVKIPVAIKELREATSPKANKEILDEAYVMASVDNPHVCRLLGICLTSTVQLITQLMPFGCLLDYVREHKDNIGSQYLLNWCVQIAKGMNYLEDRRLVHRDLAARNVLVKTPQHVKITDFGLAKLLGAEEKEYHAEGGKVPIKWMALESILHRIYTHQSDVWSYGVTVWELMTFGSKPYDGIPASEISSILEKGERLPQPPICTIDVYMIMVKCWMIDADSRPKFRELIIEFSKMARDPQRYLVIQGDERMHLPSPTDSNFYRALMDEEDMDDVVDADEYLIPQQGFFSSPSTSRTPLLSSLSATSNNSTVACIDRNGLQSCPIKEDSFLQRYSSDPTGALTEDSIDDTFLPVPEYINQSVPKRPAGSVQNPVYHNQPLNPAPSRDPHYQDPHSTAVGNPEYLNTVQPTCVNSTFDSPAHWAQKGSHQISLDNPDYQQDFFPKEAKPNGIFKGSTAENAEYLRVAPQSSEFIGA

As for `Cc1cc(Nc2ncnn3ccc([C@H]4CCCN(C(=O)/C=C/CN(C)C)CC4)c23)ccc1Oc1ccn2ncnc2c1` (single isomer, unassigned) [Example 110], in test [1], the IC50 (in general, the concentration needed to halve the response being measured) was less than 200 nM.
On to `Cc1cc(Nc2ncnn3ccc([C@H]4CCCN(C(=O)/C=C/CN(C)C)C4)c23)ccc1Oc1ccn2ncnc2c1` (single isomer, unassigned) [Example 108], for which the IC50 in test [1] was less than 200 nM.
Consider `Cc1cc(Nc2ncnn3ccc([C@H]4CCN(C(=O)/C=C/CN(C)C)C4)c23)ccc1Oc1ccn2ncnc2c1` (single isomer, unassigned) [Example 100], for which the IC50 in test [1] was less than 200 nM.
Turning to `C=C(CN(C)C)C(=O)N1C2C=C(c3ccn4ncnc(Nc5ccc(Oc6ccn7ncnc7c6)c(C)c5)c34)CC1CC2` (stereo not shown) [Example 30, 1-(3-(4-((4-([1,2,4]triazolo[1,5-a]pyridin-7-yloxy)-3-methylphenyl)amino)pyrrolo[2,1-f][1,2,4]triazin-5-yl)-8-azabicyclo[3.2.1]oct-2-en-8-yl)-2-((dimethylamino)methyl) prop-2-en-1-one acetate], the GI50 on BaF3_HER2WT cells is less than 200 nM; at BaF3_EGFRWT cells, 1500 to 5000 nM; on BaF3-HER2YVMA cells, less than 200 nM.
Turning to `Cc1cc(Nc2ncnn3ccc(C4CCN(C(=O)[C@@H](F)Cl)CC4)c23)ccc1Oc1ccn2ncnc2c1` (single isomer, unassigned) [second eluting isomer of Examples 173 and 174], the values for the GI50 at BaF3_HER2WT cells, on BaF3_EGFRWT cells and on BaF3-HER2YVMA cells were less than 200 nM, 1500 to 5000 nM and less than 200 nM, respectively.
Turning to `Cc1cc(Nc2ncnn3ccc(C4CC5CCC4CN5C(=O)/C=C/CN(C)C)c23)ccc1Oc1ccn2ncnc2c1` (single isomer, unassigned; first eluting) [first eluting isomer of Examples 137 and 138], the GI50 on BaF3_HER2WT cells was less than 200 nM.

Values taken from patent US12145948B2, “Compounds and methods for modulating HER2” (IAMBIC THERAPEUTICS, INC., priority 2022, dated 2024).
